Columns and labels:
Assay type in all cases: in vivo
[1] = tested on: ducksalad (Heteranthera limosa); assay: Test B flooded paddy test; conditions: Flood, 125 g ai/ha; scale of 0 to 100, 0 is no effect, 100 is complete control; 13 to 15 d
Experimental: (§1) Plant species in the flooded paddy test selected from rice (Oryza sativa), small-flower sedge, umbrella (small-flower umbrella sedge, Cyperus difformis), ducksalad (Heteranthera limosa), and barnyardgrass (Echinochloa crus-galli) were grown to the 2-leaf stage for testing. At time of treatment, test pots were flooded to 3 cm above the soil surface, treated by application of test compounds directly to the paddy water, and then maintained at that water depth for the duration of the test. Treated plants and controls were maintained in a greenhouse for 13 to 15 d, after which time all species were compared to controls and visually evaluated. Plant response ratings, summarized in Table B, are based on a scale of 0 to 100 where 0 is no effect and 100 is complete control. A dash (-) response means no test result.

rice (Oryza sativa) = assay: Test B flooded paddy test; conditions: Flood, 125 g ai/ha; scale of 0 to 100, 0 is no effect, 100 is complete control; 13 to 15 d
Experimental: as §1

[2] = tested on: barnyardgrass (Echinochloa crus-galli); assay: Test B flooded paddy test; conditions: Flood, 125 g ai/ha; scale of 0 to 100, 0 is no effect, 100 is complete control; 13 to 15 d
Experimental: as §1

[3] = tested on: sedge, umbrella (small-flower umbrella sedge, Cyperus difformis); assay: Test B flooded paddy test; conditions: Flood, 125 g ai/ha; scale of 0 to 100, 0 is no effect, 100 is complete control; 13 to 15 d
Experimental: as §1

[4] = tested on: foxtail, giant (giant foxtail, Setaria faberii); assay: Test A pre-/postemergence greenhouse herbicide test; conditions: 0 to 100 scale (0 no effect, 100 complete control), approx. 10 d
Description: (§2) Seeds of plant species selected from barnyardgrass (Echinochloa crus-galli), crabgrass, Large (large crabgrass, Digitaria sanguinalis), foxtail, giant (giant foxtail, Setaria faberii), morningglory (Ipomoea spp.), pigweed (Amaranthus retroflexus), velvetleaf (Abutilon theophrasti), wheat (Triticum aestivum), and corn (Zea mays) were planted into a blend of loam soil and sand and treated preemergence with a directed soil spray using test chemicals formulated in a non-phytotoxic solvent mixture which included a surfactant. At the same time these species were also treated with postemergence applications of test chemicals formulated in the same manner.
(§3) Plants ranged in height from 2 to 10 cm and were in the one- to two-leaf stage for the postemergence treatment. Treated plants and untreated controls were maintained in a greenhouse for approximately 10 d, after which time all treated plants were compared to untreated controls and visually evaluated for injury. Plant response ratings, summarized in Table A, are based on a 0 to 100 scale where 0 is no effect and 100 is complete control. A dash (-) response means no test result.

[5] = tested on: morningglory (Ipomoea spp.); assay: as above; conditions: 0 to 100 scale (0 no effect, 100 complete control), approx. 10 d
Description: as §2, §3

corn (Zea mays) = assay: as above; conditions: 0 to 100 scale (0 no effect, 100 complete control), approx. 10 d
Description: as §2, §3

[6] = tested on: wheat (Triticum aestivum); assay: as above; conditions: 0 to 100 scale (0 no effect, 100 complete control), approx. 10 d
Description: as §2, §3

[7] = tested on: barnyardgrass (Echinochloa crus-galli); assay: as above; conditions: 0 to 100 scale (0 no effect, 100 complete control), approx. 10 d
Description: as §2, §3

[8] = tested on: velvetleaf (Abutilon theophrasti); assay: as above; conditions: 0 to 100 scale (0 no effect, 100 complete control), approx. 10 d
Description: as §2, §3

[9] = tested on: crabgrass, Large (large crabgrass, Digitaria sanguinalis); assay: as above; conditions: 0 to 100 scale (0 no effect, 100 complete control), approx. 10 d
Description: as §2, §3

[10] = tested on: pigweed (Amaranthus retroflexus); assay: as above; conditions: 0 to 100 scale (0 no effect, 100 complete control), approx. 10 d
Description: as §2, §3

| SMILES | Plant response rating, Ducksalad [1] | Plant response rating, Rice (rice (Oryza sativa)) | Plant response rating, Barnyardgrass [2] | Plant response rating, Sedge, Umbrella [3] | Plant response rating, Foxtail, Giant ([4]; Postemergence, 125 g ai/ha) | Plant response rating, Foxtail, Giant ([4]; Postemergence, 500 g ai/ha) | Plant response rating, Foxtail, Giant ([4]; Preemergence, 125 g ai/ha) | Plant response rating, Foxtail, Giant ([4]; Preemergence, 500 g ai/ha) | Plant response rating, Morningglory ([5]; Postemergence, 125 g ai/ha) | Plant response rating, Morningglory ([5]; Postemergence, 500 g ai/ha) | Plant response rating, Morningglory ([5]; Preemergence, 125 g ai/ha) | Plant response rating, Morningglory ([5]; Preemergence, 500 g ai/ha) | Plant response rating, Corn (corn (Zea mays); Postemergence, 125 g ai/ha) | Plant response rating, Corn (corn (Zea mays); Postemergence, 500 g ai/ha) | Plant response rating, Corn (corn (Zea mays); Preemergence, 125 g ai/ha) | Plant response rating, Corn (corn (Zea mays); Preemergence, 500 g ai/ha) | Plant response rating, Wheat ([6]; Postemergence, 125 g ai/ha) | Plant response rating, Wheat ([6]; Postemergence, 500 g ai/ha) | Plant response rating, Wheat ([6]; Preemergence, 125 g ai/ha) | Plant response rating, Wheat ([6]; Preemergence, 500 g ai/ha) | also measured |
| --- | --- | --- | --- | --- | --- | --- | --- | --- | --- | --- | --- | --- | --- | --- | --- | --- | --- | --- | --- | --- | --- |
| CCCOc1cc(=O)n(-c2ccc(C(F)(F)F)cc2)nc1Cc1ccnc(C(F)(F)F)c1 [Compound 19] | 0 | 0 | 0 | 0 | 10 | 20 | 40 | 70 | 10 | 30 | 0 | 10 | 10 | 10 | 0 | 0 | 0 | 10 | 0 | 0 | Plant response rating, Barnyardgrass ([7]; Postemergence, 125 g ai/ha): 10; Plant response rating, Barnyardgrass ([7]; Postemergence, 500 g ai/ha): 20; Plant response rating, Barnyardgrass ([7]; Preemergence, 125 g ai/ha): 0; Plant response rating, Barnyardgrass ([7]; Preemergence, 500 g ai/ha): 10; Plant response rating, Velvetleaf ([8]; Postemergence, 125 g ai/ha): 10; Plant response rating, Velvetleaf ([8]; Postemergence, 500 g ai/ha): 50; Plant response rating, Velvetleaf ([8]; Preemergence, 125 g ai/ha): 0; Plant response rating, Velvetleaf ([8]; Preemergence, 500 g ai/ha): 10; Plant response rating, Crabgrass, Large ([9]; Postemergence, 125 g ai/ha): 10; Plant response rating, Crabgrass, Large ([9]; Postemergence, 500 g ai/ha): 20; Plant response rating, Crabgrass, Large ([9]; Preemergence, 125 g ai/ha): 70; Plant response rating, Crabgrass, Large ([9]; Preemergence, 500 g ai/ha): 90; Plant response rating, Pigweed ([10]; Postemergence, 125 g ai/ha): 80; Plant response rating, Pigweed ([10]; Postemergence, 500 g ai/ha): 80; Plant response rating, Pigweed ([10]; Preemergence, 125 g ai/ha): 60; Plant response rating, Pigweed ([10]; Preemergence, 500 g ai/ha): 70 |
| CN(C)c1cc(=O)n(-c2ccc(F)cc2)nc1Cc1ccnc(C(F)(F)F)c1 [Compound 20] | 0 | 0 | 0 | 0 | 40 | 80 | 80 | 100 | 50 | 100 | 10 | 60 | 30 | 60 | 0 | 10 | 0 | 50 | 0 | 30 | Plant response rating, Barnyardgrass ([7]; Postemergence, 125 g ai/ha): 50; Plant response rating, Barnyardgrass ([7]; Postemergence, 500 g ai/ha): 90; Plant response rating, Barnyardgrass ([7]; Preemergence, 125 g ai/ha): 20; Plant response rating, Barnyardgrass ([7]; Preemergence, 500 g ai/ha): 90; Plant response rating, Velvetleaf ([8]; Postemergence, 125 g ai/ha): 60; Plant response rating, Velvetleaf ([8]; Postemergence, 500 g ai/ha): 70; Plant response rating, Velvetleaf ([8]; Preemergence, 125 g ai/ha): 20; Plant response rating, Velvetleaf ([8]; Preemergence, 500 g ai/ha): 50; Plant response rating, Crabgrass, Large ([9]; Postemergence, 125 g ai/ha): 50; Plant response rating, Crabgrass, Large ([9]; Postemergence, 500 g ai/ha): 90; Plant response rating, Crabgrass, Large ([9]; Preemergence, 125 g ai/ha): 100; Plant response rating, Crabgrass, Large ([9]; Preemergence, 500 g ai/ha): 100; Plant response rating, Pigweed ([10]; Postemergence, 125 g ai/ha): 90; Plant response rating, Pigweed ([10]; Postemergence, 500 g ai/ha): 100; Plant response rating, Pigweed ([10]; Preemergence, 125 g ai/ha): 100; Plant response rating, Pigweed ([10]; Preemergence, 500 g ai/ha): 100 |
| CN(C)c1cc(=O)n(-c2ccc(C(F)(F)F)cc2)nc1Cc1ccnc(C(F)(F)F)c1 [Compound 21] | 0 | 0 | 0 | 90 | 30 | 50 | 30 | 70 | 30 | 60 | 0 | 10 | 20 | 40 | 0 | 0 | 20 | 30 | 0 | 10 | Plant response rating, Barnyardgrass ([7]; Postemergence, 125 g ai/ha): 40; Plant response rating, Barnyardgrass ([7]; Postemergence, 500 g ai/ha): 50; Plant response rating, Barnyardgrass ([7]; Preemergence, 125 g ai/ha): 10; Plant response rating, Barnyardgrass ([7]; Preemergence, 500 g ai/ha): 30; Plant response rating, Velvetleaf ([8]; Postemergence, 125 g ai/ha): 60; Plant response rating, Velvetleaf ([8]; Postemergence, 500 g ai/ha): 80; Plant response rating, Velvetleaf ([8]; Preemergence, 125 g ai/ha): 0; Plant response rating, Velvetleaf ([8]; Preemergence, 500 g ai/ha): 20; Plant response rating, Crabgrass, Large ([9]; Postemergence, 125 g ai/ha): 20; Plant response rating, Crabgrass, Large ([9]; Postemergence, 500 g ai/ha): 60; Plant response rating, Crabgrass, Large ([9]; Preemergence, 125 g ai/ha): 80; Plant response rating, Crabgrass, Large ([9]; Preemergence, 500 g ai/ha): 100; Plant response rating, Pigweed ([10]; Postemergence, 125 g ai/ha): 90; Plant response rating, Pigweed ([10]; Postemergence, 500 g ai/ha): 90; Plant response rating, Pigweed ([10]; Preemergence, 125 g ai/ha): 100; Plant response rating, Pigweed ([10]; Preemergence, 500 g ai/ha): 100 |
| CCCc1cc(=O)n(-c2ccc(F)cc2)nc1Cc1ccnc(C(F)(F)F)c1 [Compound 24] | 30 | 20 | 0 | 90 | 70 | 80 | 100 | 100 | 50 | 90 | 30 | 80 | 50 | 60 | 30 | 50 | 50 | 70 | 30 | 50 | Plant response rating, Barnyardgrass ([7]; Postemergence, 125 g ai/ha): 70; Plant response rating, Barnyardgrass ([7]; Postemergence, 500 g ai/ha): 90; Plant response rating, Barnyardgrass ([7]; Preemergence, 125 g ai/ha): 70; Plant response rating, Barnyardgrass ([7]; Preemergence, 500 g ai/ha): 100; Plant response rating, Velvetleaf ([8]; Postemergence, 125 g ai/ha): 80; Plant response rating, Velvetleaf ([8]; Postemergence, 500 g ai/ha): 80; Plant response rating, Velvetleaf ([8]; Preemergence, 125 g ai/ha): 30; Plant response rating, Velvetleaf ([8]; Preemergence, 500 g ai/ha): 80; Plant response rating, Crabgrass, Large ([9]; Postemergence, 125 g ai/ha): 70; Plant response rating, Crabgrass, Large ([9]; Postemergence, 500 g ai/ha): 90; Plant response rating, Crabgrass, Large ([9]; Preemergence, 125 g ai/ha): 100; Plant response rating, Crabgrass, Large ([9]; Preemergence, 500 g ai/ha): 100; Plant response rating, Pigweed ([10]; Postemergence, 125 g ai/ha): 100; Plant response rating, Pigweed ([10]; Postemergence, 500 g ai/ha): 100; Plant response rating, Pigweed ([10]; Preemergence, 125 g ai/ha): 100; Plant response rating, Pigweed ([10]; Preemergence, 500 g ai/ha): 100 |

Reference: patent publication US10202361B2, “Pyridazinones as herbicides” (E I DU PONT DE NEMOURS AND COMPANY, priority 2014, dated 2019)
